pIC50: −log10 of the molar value.
Target: T1, IL23R (Homo sapiens, UniProt Q5VWK5)
T1 construct: Tag2 (identity not disclosed); purchased PerkinElmer 64BDPIL23PEH
T1 sequence (Q5VWK5 24-355 limits assumed): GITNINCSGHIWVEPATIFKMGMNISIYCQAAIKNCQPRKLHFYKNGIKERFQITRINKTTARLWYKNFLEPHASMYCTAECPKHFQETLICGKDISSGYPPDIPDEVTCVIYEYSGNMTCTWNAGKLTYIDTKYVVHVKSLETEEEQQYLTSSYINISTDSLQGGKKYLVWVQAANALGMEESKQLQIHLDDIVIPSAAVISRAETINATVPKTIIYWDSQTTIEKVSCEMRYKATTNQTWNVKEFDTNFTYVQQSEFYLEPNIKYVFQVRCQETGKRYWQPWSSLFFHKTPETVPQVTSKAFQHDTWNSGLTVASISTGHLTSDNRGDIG
Assay: Competing with IL23 for binding to IL23R (HTRF, IL23/IL23R binding assay kit)
Conditions: 2 hours incubation at room temperature
Method: (§1) The compounds of the present disclosure were screened in IL23/IL23R BINDING ASSAY KITS (PerkinElmer Cat #64BDPIL23PEH). The screening of the compounds of the present disclosure was carried out by using a multi-well plate (suitable for HTRF determination). Generally, 2 μl of several compounds of the present disclosure and STANDARD SOLUTIONS in KIT were first respectively added to the wells of the multi-well plate. 4 μl of Tag1-IL23, 4 μl of Tag2-IL23R, and 10 μL of pre-mixed Anti-Tag1 Eu Cryptate Antibody and Anti-Tag2 d2 reagent were necessarily added to all the wells. The multi-well plate was protected from light by an opaque cover membrane, and the opaque cover membrane was then removed
as §1, with “removed after 2 hours of incubation at room temperature. The signal value was read by an HTRF-compatible detection instrument to detect IC50 value.” for “removed”
The inhibition rate was calculated as follows: […]
By using log (inhibitor) vs. response—Variable slope (four parameters) in Graphpad, the data of HTRF experiment results were subjected to non-linear regression fitting to fit a curve and obtain the IC50 value.

CC(=O)NCCCC[C@@H]1NC(=O)[C@H](Cc2c[nH]c3c(C)cccc23)NC(=O)[C@H]([C@@H](C)O)NC(=O)[C@H](CC(N)=O)NC(=O)[C@@H](NC(C)=O)C(C)(C)SSC(C)(C)[C@@H](C(=O)N[C@@H](Cc2ccc(OCCN)cc2)C(=O)N[C@@H](Cc2ccc3ccccc3c2)C(=O)NC2(C(=O)N[C@@H](CCC(=O)O)C(=O)N[C@@H](CC(N)=O)C(=O)N[C@@H](Cc3cccnc3)C(=O)N(C)CCNC(=O)CCOCCOCC[N+](C)(C)CCNC(=O)COCCOCCNC(=O)COCCOCCNC(=O)CC[C@H](NC(=O)CCCCCCCCCCCCCCC(=O)O)C(=O)O)CCC(F)(F)CC2)NC1=O [Example 1-16-1]
pIC50: 8.56
